Laboratory results reported in publication PMC12140364, “Meisoindigo Acts as a Molecular Glue to Target PKMYT1 for Degradation in Chronic Myeloid Leukemia Therapy” (Advanced Science, 2025).
Each block holds one molecule with its values, some of them ahead of it.

Legend:
[1] = target: T1, TRIM25 (Homo sapiens, UniProt Q14258); test: MST; format: binding
T1 construct: recombinant TRIM25 (Origene, TP303757)

[2] = target: T2, PKMYT1 (protein kinase, membrane-associated tyrosine/threonine 1) (Homo sapiens, UniProt Q99640); test: MST; LC-MS/MS adduct mapping; CETSA; C301A mutant abolishes binding
T2 construct: residues 75-362, N-terminal 6xHis, E. coli
T2 sequence (Q99640 75-362): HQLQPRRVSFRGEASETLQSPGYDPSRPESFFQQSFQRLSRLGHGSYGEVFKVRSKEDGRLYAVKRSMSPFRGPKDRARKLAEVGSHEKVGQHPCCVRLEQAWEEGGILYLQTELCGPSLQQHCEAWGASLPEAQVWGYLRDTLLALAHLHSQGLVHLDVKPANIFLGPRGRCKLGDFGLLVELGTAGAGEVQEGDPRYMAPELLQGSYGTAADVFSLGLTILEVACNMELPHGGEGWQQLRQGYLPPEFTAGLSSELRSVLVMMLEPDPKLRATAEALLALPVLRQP

[3] = target: T3, PKMYT1 (Homo sapiens, UniProt Q99640); test: enzyme activity assay; format: biochemical
T3 sequence (Q99640 1-499): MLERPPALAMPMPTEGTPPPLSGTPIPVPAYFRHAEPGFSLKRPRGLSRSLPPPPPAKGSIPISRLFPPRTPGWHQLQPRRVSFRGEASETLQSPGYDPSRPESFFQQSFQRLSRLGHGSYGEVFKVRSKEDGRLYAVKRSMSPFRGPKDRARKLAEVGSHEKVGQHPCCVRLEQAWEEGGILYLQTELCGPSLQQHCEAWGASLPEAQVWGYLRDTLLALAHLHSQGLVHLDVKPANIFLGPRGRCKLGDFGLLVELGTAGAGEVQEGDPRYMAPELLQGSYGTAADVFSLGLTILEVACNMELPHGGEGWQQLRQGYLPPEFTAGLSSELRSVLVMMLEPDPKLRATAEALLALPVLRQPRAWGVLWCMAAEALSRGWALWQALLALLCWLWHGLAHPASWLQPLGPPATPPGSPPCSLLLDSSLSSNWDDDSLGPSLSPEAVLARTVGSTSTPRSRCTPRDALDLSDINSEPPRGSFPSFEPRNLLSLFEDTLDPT

[4] = target: T4, TRIM25 protein (Origene, TP303757) (UniProt Q14258 1-630); test: MST; PKMYT1 (75-362) protein labelled with RED-NHS 2nd Generation, 40 nM, assay buffer with 0.05% Tween-20; TRIM25 in 2-fold dilution series; Monolith NT.115; without Mei; n = 3; conditions: both partners purified
T4 construct: TRIM25, E3 ubiquitin ligase; also called recombinant TRIM25; E3 ligase TRIM25; source: bought: Origene (TP303757)
T4 sequence (Q14258 whole entry): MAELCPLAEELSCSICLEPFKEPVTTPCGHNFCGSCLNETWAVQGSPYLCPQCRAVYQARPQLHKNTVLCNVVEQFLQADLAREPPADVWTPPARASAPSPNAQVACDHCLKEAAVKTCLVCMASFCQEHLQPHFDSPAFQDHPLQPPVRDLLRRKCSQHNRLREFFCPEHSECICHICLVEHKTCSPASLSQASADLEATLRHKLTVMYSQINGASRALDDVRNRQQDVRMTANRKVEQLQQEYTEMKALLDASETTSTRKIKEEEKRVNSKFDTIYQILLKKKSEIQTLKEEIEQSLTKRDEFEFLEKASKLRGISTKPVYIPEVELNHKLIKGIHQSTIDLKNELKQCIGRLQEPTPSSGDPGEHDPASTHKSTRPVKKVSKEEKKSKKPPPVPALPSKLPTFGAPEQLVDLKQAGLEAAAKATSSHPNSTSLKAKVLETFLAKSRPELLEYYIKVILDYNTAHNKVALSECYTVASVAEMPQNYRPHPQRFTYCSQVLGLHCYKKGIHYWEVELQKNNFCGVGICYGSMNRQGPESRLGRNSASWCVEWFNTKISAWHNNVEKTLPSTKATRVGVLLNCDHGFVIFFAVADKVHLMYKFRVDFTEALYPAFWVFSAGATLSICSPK

T1 sequence (Q14258 whole entry): as above

Kd [1]: 220 ± 100 nM
Kd [2]: 2180 ± 960 nM
Molecule: CN1C(=O)/C(=C2/C(=O)Nc3ccccc32)c2ccccc21 [Mei, Meisoindigo]

IC50 [3]: 16.4 nM
Molecule: CCN(CC)CCOc1ccc(Nc2ncc3cc(-c4c(Cl)cccc4Cl)c(=O)n(C)c3n2)cc1 [PD0166285]

Kd [4]: 2940 nM
B1: recombinant PKMYT1 (75-362) (domain or fragment, human, UniProt Q99640 75-362, looked up)
chain: T2 sequence (Q99640 75-362)
modifications: labelled with RED-NHS 2nd Generation dye for MST
notes: No cleavage of the His tag is described; also called protein kinase, membrane-associated tyrosine/threonine 1; source: E. coli BL21(DE3), purified (Ni-resin)
